Experimental data taken from US20260207702A1, “USE OF AVPR1A AGONISTS” (Viage Therapeutics Inc., priority 2022, published 2026).
Where a SMILES comes first, the peptide text is derived from it. Bridges are numbered along the chain shown (N, C = ends).

What was measured:
healthy subjects = conditions: in vivo
Procedure: A Phase 1a/1b, randomized, placebo-controlled, crossover study with the peptide [sequence] (SEQ ID NO: 1) in healthy subjects was performed. The study population included men and women in good general health.
A single ascending dose (SAD) group included four cohorts receiving 60 mg/day (cohorts SAD1 and SAD2), 180 mg/day (cohort SAD3), or 540 mg/day (cohort SAD4) of the peptide or placebo. […] All doses were administered orally. […] Seven days after the end of dosing, this group was then switched to receiving placebo once a day for seven days, followed by another 24-hour period of sleep deprivation. then crossing to 540 mg of peptide once a day for 7 days. In another group (n=7, with one participant withdrawing after initiation for personal reasons), the inverse dose regimen was used, with participants starting with placebo and the crossing over to 540 mg of peptide once a day.

mouse [1] = assay: Tail suspension test (TST) with vasopressin receptor inhibitors (Example 1); type: in vivo
Source text: NO: 1) is either AVPR1A or AVPR2 (FIGS. 1-2).

mouse [2] = assay: Mouse tail suspension test with felypressin (Example 5); type: in vivo
Procedure: The effect of orally administered felypressin, a selective AVPR1A agonist, on antidepressant activity in the mouse tail suspension test was evaluated. Felypressin at 0.03 mg/kg, 0.1 mg/kg, and 0.3 mg/kg was compared to the peptide […] (SEQ ID NO: 1) at 0.3 mg/kg (n=6 per group). The effect of orally administered felypressin (0.1 mg/kg) was also compared to the effect of orally administered felypressin (0.1 mg/kg) plus the AVPR1A/AVPR2 inhibitor conivaptan (3 mg/kg) (n=7 per group).

mouse [3] = assay: Mouse tail suspension test with desmopressin (Example 6); type: in vivo; conditions: oral desmopressin 0.03, 0.1, 0.3, 1.0 mg/kg vs felypressin 0.1 mg/kg
Procedure: Desmopressin at 0.03 mg/kg, 0.1 mg/kg, and 0.3 mg/kg was compared to felypressin at 0.1 mg/kg (n=6 per group) in a first study. Desmopressin at 0.1 mg/kg, 0.3 mg/kg, and 1.0 mg/kg was compared to felypressin at 0.1 mg/kg (n=6 per group) in a first study.

## CC(C)C[C@H](N)C(=O)N[C@@H](CO)C(=O)N[C@@H](CO)C(=O)N[C@H](C(=O)N[C@@H](CCC(N)=O)C(=O)N[C@@H](C)C(=O)N[C@@H](CCC(N)=O)C(=O)N[C@@H](CCC(N)=O)C(=O)N[C@@H](CO)C(=O)N[C@@H](Cc1ccc(O)cc1)C(=O)O)[C@@H](C)O [LSSTQAQQSY (SEQ ID NO: 1), LSSTQAQQSY] (H-LSSTQAQQSY-OH; N-terminus and C-terminus assumed)
Healthy subjects
  Vital signs, electrocardiography (ECG) data, and physical examinations: normal

## Cc1nc2c([nH]1)-c1ccccc1N(C(=O)c1ccc(NC(=O)c3ccccc3-c3ccccc3)cc1)CC2 [conivaptan]
Mouse [1]; low doses of inhibitor
  Blocking of LSSTQAQQSY (SEQ ID NO: 1) activity in a tail suspension test (reduced TST immobility): blocks
Mouse [1]; mouse, in vivo
  Blocking of LSSTQAQQSY (SEQ ID NO: 1) activity in a tail suspension test (reduced TST immobility): blocks
Mouse [2]; oral felypressin 0.1 mg/kg plus conivaptan 3 mg/kg
  Blocking of felypressin activity in the tail suspension test: blocks

## NC(=O)CC[C@@H]1NC(=O)[C@H](Cc2ccccc2)NC(=O)[C@H](Cc2ccc(O)cc2)NC(=O)CCSSC[C@@H](C(=O)N2CCC[C@H]2C(=O)N[C@H](CCCN=C(N)N)C(=O)NCC(N)=O)NC(=O)[C@H](CC(N)=O)NC1=O [desmopressin, 1-desamino-8-D-arginyl vasopressin]
Mouse [3]
  Antidepressant activity in the mouse tail suspension test, compared to felypressin: less of an effect than felypressin

## NCCCC[C@H](NC(=O)[C@@H]1CCCN1C(=O)[C@@H]1CSSC[C@H](N)C(=O)N[C@@H](Cc2ccccc2)C(=O)N[C@@H](Cc2ccccc2)C(=O)N[C@@H](CCC(N)=O)C(=O)N[C@@H](CC(N)=O)C(=O)N1)C(=O)NCC(N)=O [felypressin] (H-CFFQNCPKG-NH2; disulfide 1-6)
Mouse [2]; orally administered, 0.03, 0.1 and 0.3 mg/kg
  Antidepressant activity in the mouse tail suspension test: induces an antidepressant effect

## COc1ccc(S(=O)(=O)N2C(=O)[C@@](c3ccccc3OC)(N3C[C@H](O)C[C@H]3C(=O)N(C)C)c3cc(Cl)ccc32)c(OC)c1 [nelivaptan]
Mouse [1]; mouse, in vivo
  Blocking of LSSTQAQQSY (SEQ ID NO: 1) activity in a tail suspension test (reduced TST immobility): blocks

## Cc1ccccc1C(=O)Nc1ccc(C(=O)N2CCCC(O)c3cc(Cl)ccc32)c(C)c1 (centres unmarked) [tolvaptan]
Mouse [1]; mouse, in vivo
  Blocking of LSSTQAQQSY (SEQ ID NO: 1) activity in a tail suspension test (reduced TST immobility): does not block
